The target of the assay is T1, purified human HDAC6 (Homo sapiens, UniProt Q9UBN7).
T1 construct: purchased BPS Bioscience 5006
T1 sequence (Q9UBN7 1-1215): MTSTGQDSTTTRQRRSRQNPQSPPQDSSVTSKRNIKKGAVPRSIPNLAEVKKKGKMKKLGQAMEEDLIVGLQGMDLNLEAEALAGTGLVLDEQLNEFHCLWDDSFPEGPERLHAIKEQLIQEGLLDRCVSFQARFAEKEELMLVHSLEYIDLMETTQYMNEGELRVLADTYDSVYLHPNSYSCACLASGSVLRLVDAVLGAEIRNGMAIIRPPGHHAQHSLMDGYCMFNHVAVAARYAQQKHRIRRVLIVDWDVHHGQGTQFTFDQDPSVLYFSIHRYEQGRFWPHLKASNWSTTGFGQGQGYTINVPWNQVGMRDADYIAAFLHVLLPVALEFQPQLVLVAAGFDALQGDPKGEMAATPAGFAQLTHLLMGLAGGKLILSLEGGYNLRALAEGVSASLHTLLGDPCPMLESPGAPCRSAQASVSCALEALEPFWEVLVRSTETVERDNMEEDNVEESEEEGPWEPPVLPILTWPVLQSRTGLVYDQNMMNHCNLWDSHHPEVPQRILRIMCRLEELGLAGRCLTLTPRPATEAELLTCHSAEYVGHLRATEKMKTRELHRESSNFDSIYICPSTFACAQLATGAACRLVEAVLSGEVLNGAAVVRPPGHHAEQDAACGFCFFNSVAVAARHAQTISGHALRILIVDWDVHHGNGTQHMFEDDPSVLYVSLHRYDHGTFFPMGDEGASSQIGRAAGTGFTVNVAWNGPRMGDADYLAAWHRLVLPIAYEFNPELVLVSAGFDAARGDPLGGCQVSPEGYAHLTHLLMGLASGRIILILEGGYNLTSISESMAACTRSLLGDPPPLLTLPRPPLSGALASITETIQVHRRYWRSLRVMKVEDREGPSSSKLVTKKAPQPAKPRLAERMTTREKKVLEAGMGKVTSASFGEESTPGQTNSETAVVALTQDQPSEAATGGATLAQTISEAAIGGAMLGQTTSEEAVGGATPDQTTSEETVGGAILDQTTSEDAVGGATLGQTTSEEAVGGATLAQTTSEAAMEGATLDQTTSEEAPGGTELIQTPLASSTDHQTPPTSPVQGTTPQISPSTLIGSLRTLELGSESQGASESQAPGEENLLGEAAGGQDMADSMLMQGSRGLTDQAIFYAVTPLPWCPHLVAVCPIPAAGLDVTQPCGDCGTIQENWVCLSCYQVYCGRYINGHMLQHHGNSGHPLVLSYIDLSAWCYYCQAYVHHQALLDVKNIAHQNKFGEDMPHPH
Put plainly: HDAC6 Enzyme Assay. The following applies: read-out: Percent Inhibition; for inhibition at 0.412 µM: compound concentration 0.412 μM; for inhibition at 0.37 µM: compound concentration 0.37 μM. It is filed as biochemical. As for the experimental part: To measure the inhibition of HDAC6 activity, purified human HDAC6 (BPS Bioscience; Cat. No. 5006) is incubated with substrate Ac-Arg-Gly-Lys(Ac)-AMC peptide (Bachem Biosciences; Cat. No. I-1925) for 1 hour at 30° C. in the presence of test compounds or vehicle DMSO control. The reaction is stopped with the HDAC inhibitor trichostatin A (Sigma; Cat. No. T8552) and the amount of Arg-Gly-Lys-AMC generated is quantitated by digestion with trypsin (Sigma; Cat. No. T1426) and subsequent measurement of the amount of AMC released using a fluorescent plate reader (Pherastar; BMG Technologies) set at Ex 340 nm and Em 460 nm. Concentration response curves are generated by calculating the fluorescence increase in test compound-treated samples relative to DMSO-treated controls, and percentage inhibition values at a single concentration or enzyme inhibition (IC50) values are determined from those curves. One skilled in the art will appreciate that the values generated either as percentage inhibition at a single concentration or IC50 values are subject to experimental variation.

As usually defined, the inhibition is the share of the control response that was lost under treatment. On to `CC(C)(C)OC(=O)N1CCC(NCc2nc3cc(C(=O)NO)ccc3c(=O)[nH]2)CC1` [Compound I-56, tert-butyl 4-[({7-[(hydroxyamino)carbonyl]-4-oxo-3,4-dihydroquinazolin-2-yl}methyl)amino]piperidine-1-carboxylate], for which the inhibition at 0.412 µM came to 69%. Consider `Cc1ccn(CCn2cnc3ccc(C(=O)NO)cc3c2=O)n1` [Compound I-57, N-hydroxy-3-[2-(3-methyl-1H-pyrazol-1-yl)ethyl]-4-oxo-3,4-dihydroquinazoline-6-carboxamide], for which the inhibition at 0.412 µM turned out to be 77.4%. Regarding `CC(C)(C)OC(=O)N1CCC(CCn2ccc3ccc(C(=O)NO)cc3c2=O)CC1` [Compound I-58, tert-butyl 4-{2-[7-[(hydroxyamino)carbonyl]-1-oxoisoquinolin-2(1H)-yl]ethyl}piperidine-1-carboxylate], the inhibition at 0.412 µM was determined as 80.4%. Regarding `O=C(NO)c1ccc2c(=O)n(CC3CC3)cnc2c1` [Compound I-59, 3-(cyclopropylmethyl)-N-hydroxy-4-oxo-3,4-dihydroquinazoline-7-carboxamide], the inhibition at 0.412 µM is 80.7%. `CC(=O)Nc1cccc(-c2cccc(Cn3cnc4ccc(C(=O)NO)cc4c3=O)c2)c1` [Compound I-60, 3-{[3′-(acetylamino)biphenyl-3-yl]methyl}-N-hydroxy-4-oxo-3,4-dihydroquinazoline-6-carboxamide]: the inhibition at 0.37 µM stood at 98.4%. As to `O=C(NO)c1ccc2ccn(Cc3cccc(C(F)(F)F)c3)c(=O)c2c1` [Compound I-61, N-hydroxy-1-oxo-2-[3-(trifluoromethyl)benzyl]-1,2-dihydroisoquinoline-7-carboxamide], the inhibition at 0.412 µM stood at 95.7%. In the case of `O=C(NO)c1ccc2ccn(CCCCOc3ccccc3)c(=O)c2c1` [Compound I-62, N-hydroxy-1-oxo-2-(4-phenoxybutyl)-1,2-dihydroisoquinoline-7-carboxamide], the inhibition at 0.412 µM was determined as 98%.

In the case of `O=C(NO)c1ccc2ncn(Cc3ccccc3Cl)c(=O)c2c1` [Compound I-63, 3-(2-chlorobenzyl)-N-hydroxy-4-oxo-3,4-dihydroquinazoline-6-carboxamide], the inhibition at 0.412 µM was determined as 93.2%. Turning to `O=C(NO)c1ccc2ccn(C3CCC3)c(=O)c2c1` [Compound I-64, 2-cyclobutyl-N-hydroxy-1-oxo-1,2-dihydroisoquinoline-7-carboxamide], the inhibition at 0.412 µM was 93.1%. As to `O=C(NO)c1ccc2ccn(Cc3c(F)c(F)c(F)c(F)c3F)c(=O)c2c1` [Compound I-65, N-hydroxy-1-oxo-2-(pentafluorobenzyl)-1,2-dihydroisoquinoline-7-carboxamide], the inhibition at 0.412 µM came out at 93%.

`O=C(NO)c1ccc2c(=O)[nH]c(COc3ccc4c(c3)OCO4)nc2c1` [Compound I-66, 2-[(1,3-benzodioxol-5-yloxy)methyl]-N-hydroxy-4-oxo-3,4-dihydroquinazoline-7-carboxamide]: the inhibition at 0.412 µM is 89.5%. Still for that read-out and setting: to `O=C(NO)c1ccc2ncn(Cc3nc4ccccc4s3)c(=O)c2c1` [Compound I-67, 3-(1,3-benzothiazol-2-ylmethyl)-N-hydroxy-4-oxo-3,4-dihydroquinazoline-6-carboxamide] belongs 49.2%. On to `O=C(NO)c1ccc2c(=O)[nH]c(C(=O)NCc3ccc(Cl)cc3)nc2c1` [Compound I-68, N^2-(4-chlorobenzyl)-N^7-hydroxy-4-oxo-3,4-dihydroquinazoline-2,7-dicarboxamide], for which the inhibition at 0.412 µM is 61.7%.

`O=C(NO)c1ccc2ncn(Cc3cccc(-c4ccc(C(F)(F)F)cc4)c3)c(=O)c2c1` [Compound I-69, N-hydroxy-4-oxo-3-{[4′-(trifluoromethyl)biphenyl-3-yl]methyl}-3,4-dihydroquinazoline-6-carboxamide]: the inhibition at 0.37 µM was found to be 82%. As for `COc1ccc(Nc2nc3ccc(C(=O)NO)cc3c(=O)n2C)cc1` [Compound I-70, N-hydroxy-2-[(4-methoxyphenyl)amino]-3-methyl-4-oxo-3,4-dihydroquinazoline-6-carboxamide], the inhibition at 0.412 µM was 46.7%. As to `O=C(NO)c1ccc2ccn(CCOc3ccccc3-n3cccc3)c(=O)c2c1` [Compound I-71, N-hydroxy-1-oxo-2-{2-[2-(1H-pyrrol-1-yl)phenoxy]ethyl}-1,2-dihydroisoquinoline-7-carboxamide], the inhibition at 0.412 µM stood at 98.5%. On to `O=C(NO)c1ccc2ccn(CCCOc3cccc(-c4csnn4)c3)c(=O)c2c1` [Compound I-72, N-hydroxy-1-oxo-2-{3-[3-(1,2,3-thiadiazol-4-yl)phenoxy]propyl}-1,2-dihydroisoquinoline-7-carboxamide], for which the inhibition at 0.412 µM was 94.1%. On to `O=C(NO)c1ccc2c(=O)n(Cc3ccc(C(F)(F)F)cc3)c(-c3ccccc3)nc2c1` [Compound I-73, N-hydroxy-4-oxo-2-phenyl-3-[4-(trifluoromethyl)benzyl]-3,4-dihydroquinazoline-7-carboxamide], for which the inhibition at 0.412 µM came out at 87.7%. As to `O=C(NO)c1ccc2c(=O)n(CCCc3ccccc3)cnc2c1` [Compound I-74, N-hydroxy-4-oxo-3-(3-phenylpropyl)-3,4-dihydroquinazoline-7-carboxamide], the inhibition at 0.412 µM amounted to 94.8%. Regarding `O=C(NO)c1ccc2ccn(Cc3ccc(C(F)(F)F)cc3)c(=O)c2c1` [Compound I-75, N-hydroxy-1-oxo-2-[4-(trifluoromethyl)benzyl]-1,2-dihydroisoquinoline-7-carboxamide], the inhibition at 0.412 µM amounted to 94.6%. `O=C(NO)c1ccc2ccn(Cc3ccc(F)cc3)c(=O)c2c1` [Compound I-76, 2-(4-fluorobenzyl)-N-hydroxy-1-oxo-1,2-dihydroisoquinoline-7-carboxamide]: the inhibition at 0.412 µM amounted to 93.8%. As for `O=C(NO)c1ccc2ccn(CCNCc3cccc(C(F)(F)F)c3)c(=O)c2c1` [Compound I-77, N-hydroxy-1-oxo-2-(2-{[3-(trifluoromethyl)benzyl]amino}ethyl)-1,2-dihydroisoquinoline-7-carboxamide], the inhibition at 0.412 µM is 91%. With `O=C(NO)c1ccc2ccn(Cc3ccc(C(F)(F)F)cc3C(F)(F)F)c(=O)c2c1` [Compound I-78, 2-[2,4-bis(trifluoromethyl)benzyl]-N-hydroxy-1-oxo-1,2-dihydroisoquinoline-7-carboxamide], the inhibition at 0.412 µM came to 92.9%. As to `O=C(NO)c1ccc2ncn(Cc3cccc(-c4cc(C(F)(F)F)cc(C(F)(F)F)c4)c3)c(=O)c2c1` [Compound I-79, 3-{[3′,5′-bis(trifluoromethyl)biphenyl-3-yl]methyl}-N-hydroxy-4-oxo-3,4-dihydroquinazoline-6-carboxamide], the inhibition at 0.37 µM turned out to be 84.1%.

As to `CC(=O)Nc1ccc(-c2cccc(Cn3cnc4ccc(C(=O)NO)cc4c3=O)c2)cc1` [Compound I-80, 3-{[4′-(acetylamino)biphenyl-3-yl]methyl}-N-hydroxy-4-oxo-3,4-dihydroquinazoline-6-carboxamide], the inhibition at 0.37 µM turned out to be 86.7%. For `CC(C)Cc1nc2cc(C(=O)NO)ccc2c(=O)n1Cc1ccc(C(F)(F)F)cc1` [Compound I-81, N-hydroxy-2-isobutyl-4-oxo-3-[4-(trifluoromethyl)benzyl]-3,4-dihydroquinazoline-7-carboxamide], the inhibition at 0.412 µM turned out to be 76.7%. `O=C(NO)c1ccc2ccn(Cc3cccc(-n4cccn4)c3)c(=O)c2c1` [Compound I-82, N-hydroxy-1-oxo-2-[3-(1H-pyrazol-1-yl)benzyl]-1,2-dihydroisoquinoline-7-carboxamide]: the inhibition at 0.37 µM was determined as 100%.

On to `O=C(NO)c1ccc2ccn(Cc3cccc4cccnc34)c(=O)c2c1` [Compound I-83, N-hydroxy-1-oxo-2-(quinolin-8-ylmethyl)-1,2-dihydroisoquinoline-7-carboxamide], for which the inhibition at 0.412 µM was 89.7%.

The values above are taken from patent publication US8765773B2, “Substituted hydroxamic acids and uses thereof” (Millennium Pharmaceuticals, Inc., priority 2010, dated 2014).
